These results are taken from article PMC12758333 (Autophagy, 2025).

The target of this assay is T1, HMGB1 (HMGB1-His) (Homo sapiens, UniProt P09429).
T1 sequence (P09429 1-215): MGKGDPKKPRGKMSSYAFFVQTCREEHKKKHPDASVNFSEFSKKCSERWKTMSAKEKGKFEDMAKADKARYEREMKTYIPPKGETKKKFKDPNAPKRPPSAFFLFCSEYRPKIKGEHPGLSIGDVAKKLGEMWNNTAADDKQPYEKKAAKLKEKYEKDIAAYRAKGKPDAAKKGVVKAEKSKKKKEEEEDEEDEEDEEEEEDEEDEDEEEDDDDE
The experiment in a line: microscale thermophoresis. The format is binding. For orientation: In MST a laser heats a spot of the sample, and binding alters the fluorescence response.

On to `CN1CCN(c2ccc(C(=O)Nc3n[nH]c4ccc(Cc5cc(F)cc(F)c5)cc34)c(NC3CCOCC3)c2)CC1` [entrectinib], for which the Kd worked out at 65.5 µM. This counts as double-digit micromolar.

As a reminder, the Kd is a measure of binding affinity in units of concentration.
